The values below come from PMC2819846 (Mutation research, 2008).

One series has as its system Salmonella. To be noted: cited from earlier work.
The subject of a further series is Salmonella TA104. In words: Salmonella plate-incorporation mutagenicity assay, strain TA104, with S9 mix. Type of series: cell-based.
Series [1] concerns DNA from Salmonella TA100. In words: Abasic sites by aldehydic-site assay in DNA of treated TA100. Type of series: cell-based. As to conditions: DMSO 5.9 ± 0.33.
The subject of series [2] is DNA from Salmonella TA100. Description: Stable DNA adducts by 32P-postlabeling in DNA of treated TA100. Type of series: cell-based. As to conditions: DMSO 0.024 ± 0.000.
Another series has as its system strain TA100. It is filed as cell-based, Salmonella. As to conditions: TA100 liquid-suspension; for Rev/10^6 survivors: DMSO 0.8; for Percent survival: DMSO 100.
The test system of another series is Salmonella TA98. Description: Salmonella plate-incorporation mutagenicity assay, strain TA98, with S9 mix. It is filed as cell-based.
The next series deals with Salmonella TA100. Description: Salmonella plate-incorporation mutagenicity assay, strain TA100. It is filed as cell-based.

The structures appear in SMILES notation. Values joined by “and” are separate entries in the source; they are usually repeats but may differ in a detail not shown here. Identical values can stand only once. Like-named read-outs stand apart in the source and are kept apart here.

Take `c1ccc2c(c1)ccc1cc3c(cc12)sc1ccccc13` [BPT, benzo[b]phenanthro[2,3-d]thiophene]: the “Mutagenicity in Salmonella” value with Salmonella is reported as “mutagenic”.

As to `O=S1(=O)C=Cc2c1ccc1ccc3ccccc3c21` [P[3,4-b]T sulfone, Phenanthro[3,4-b]thiophene sulfone], the Rev/plate in the series on Salmonella TA104 (TA104 +S9, Test 2, 2.5 µg/plate, zero-dose 276/260/270) is 1068/1015; with Salmonella TA104 (TA104 +S9, Test 2, 5 µg/plate, zero-dose 276/260/270) it was 1603/1565; in the series with Salmonella TA104 (TA104 +S9, Test 2, 10 µg/plate, zero-dose 276/260/270), 1488/1583; with Salmonella TA104 (TA104 +S9, Test 2, 20 µg/plate, zero-dose 276/260/270) it was 706/778; in the series on Salmonella TA104 (TA104 +S9, Test 3, 2.5 µg/plate, zero-dose 402/395/336), 1027/982; in the series on Salmonella TA104 (TA104 +S9, Test 3, 5 µg/plate, zero-dose 402/395/336), 1650/1580. Besides, the Rev/plate in the series with Salmonella TA104 (TA104 +S9, Test 3, 10 µg/plate, zero-dose 402/395/336) was 1652/1652; in the series on Salmonella TA104 (TA104 +S9, Test 3, 20 µg/plate, zero-dose 402/395/336) it was 758/919; in the series with Salmonella TA98 (TA98 +S9, Test 1, 2 µg/plate, zero-dose 33/40/39), 328 rev/plate; with Salmonella TA98 (TA98 +S9, Test 1, 5 µg/plate, zero-dose 33/40/39) it was 982 rev/plate; in the series on Salmonella TA98 (TA98 +S9, Test 1, 10 µg/plate, zero-dose 33/40/39) it was 1373 rev/plate; with Salmonella TA98 (TA98 +S9, Test 1, 20 µg/plate, zero-dose 33/40/39), 1324 rev/plate. The Rev/plate with Salmonella TA98 (TA98 +S9, Test 1, 40 µg/plate, zero-dose 33/40/39) is 1124 rev/plate; in the series with Salmonella TA98 (TA98 +S9, Test 1, 80 µg/plate, zero-dose 33/40/39), 1268 rev/plate; in the series on Salmonella TA98 (TA98 +S9, Test 2, 0.5 µg/plate, zero-dose 43/41/30) it was 41/57; in the series with Salmonella TA98 (TA98 +S9, Test 2, 1 µg/plate, zero-dose 43/41/30) it was 63/67; in the series on Salmonella TA98 (TA98 +S9, Test 2, 2.5 µg/plate, zero-dose 43/41/30), 263/237; in the series on Salmonella TA98 (TA98 +S9, Test 2, 5 µg/plate, zero-dose 43/41/30), 765/708. The Rev/plate in the series on Salmonella TA98 (TA98 +S9, Test 3, 0.5 µg/plate, zero-dose 49/50/50) is on record as 56/52; in the series on Salmonella TA98 (TA98 +S9, Test 3, 1 µg/plate, zero-dose 49/50/50), 124/86; with Salmonella TA98 (TA98 +S9, Test 3, 2.5 µg/plate, zero-dose 49/50/50) it was 293/366; with Salmonella TA98 (TA98 +S9, Test 3, 5 µg/plate, zero-dose 49/50/50), 1078/922; in the series with Salmonella TA100 (TA100 +S9, Test 3, 0.1 µg/plate, zero-dose 127/118/125), 239/190; in the series with Salmonella TA100 (TA100 +S9, Test 3, 0.25 µg/plate, zero-dose 127/118/125), 368/365. Also, the Rev/plate is 681/795 in the series with Salmonella TA100 (TA100 +S9, Test 3, 0.5 µg/plate, zero-dose 127/118/125); 1332/1283 in the series on Salmonella TA100 (TA100 +S9, Test 3, 1 µg/plate, zero-dose 127/118/125); 2801/2710 in the series on Salmonella TA100 (TA100 +S9, Test 3, 2.5 µg/plate, zero-dose 127/118/125); 3090/3170 with Salmonella TA100 (TA100 +S9, Test 3, 5 µg/plate, zero-dose 127/118/125); 197/195 with Salmonella TA100 (TA100 +S9, Test 4, 0.1 µg/plate, zero-dose 112/140/115); 284/297 with Salmonella TA100 (TA100 +S9, Test 4, 0.25 µg/plate, zero-dose 112/140/115). Besides, the Rev/plate is listed as 453/514 in the series on Salmonella TA100 (TA100 +S9, Test 4, 0.5 µg/plate, zero-dose 112/140/115); 380/383 in the series with Salmonella TA100 (TA100 +S9, Test 4, 1 µg/plate, zero-dose 112/140/115); 1885 rev/plate in the series with Salmonella TA100 (TA100 +S9, Test 4, 2.5 µg/plate, zero-dose 112/140/115); 194/197 with Salmonella TA100 (TA100 +S9, Test 5, 0.1 µg/plate, zero-dose 102/119/99); 255/245 with Salmonella TA100 (TA100 +S9, Test 5, 0.25 µg/plate, zero-dose 102/119/99); 504/448 with Salmonella TA100 (TA100 +S9, Test 5, 0.5 µg/plate, zero-dose 102/119/99). Further, the Rev/plate with Salmonella TA100 (TA100 +S9, Test 5, 1 µg/plate, zero-dose 102/119/99) was 1037/993; with Salmonella TA100 (TA100 +S9, Test 5, 2.5 µg/plate, zero-dose 102/119/99), 2935/2875. Moreover, in the series on Salmonella TA104 (plate-incorporation, +S9), the “Mutagenic potency, Revertants/µg ± S.E., TA104” value amounted to 262 ± 135 rev/µg. In the series on Salmonella TA104 (plate-incorporation, +S9), the “Mutagenicity call TA104” value is recorded as “(+) (Called mutagenic (+) based on showing reproducible, dose-related increases in rev/plate that reached or exceeded 2-fold relative to zero-dose controls)”. Besides, the “Abasic sites/10^5 nucleotides ± S.E” value in series [1] (TA100, 10 µg/ml) is reported as 18.4 ± 0.64 sites/10^5 nucleotides; in series [1] (TA100, 20 µg/ml) it was 15.1 ± 0.43 sites/10^5 nucleotides. The “Stable adducts/10^8 nucleotides ± S.E” value is recorded as “Not detected” in series [2] (TA100, 10 µg/ml) and “Not detected” in series [2] (TA100, 20 µg/ml). For the same compound, the results for the “Fold increase in mutant frequency relative to DMSO-treated cells” value with strain TA100 (10 µg/ml) and with strain TA100 (20 µg/ml) were 17.6 fold and 62.1 fold, respectively. The entries for the “Rev/10^6 survivors” value in the series with strain TA100 (10 µg/ml) and with strain TA100 (20 µg/ml) were 14.1 Rev/10^6 survivors and 49.1 Rev/10^6 survivors, respectively. Also, the Percent survival with strain TA100 (10 µg/ml) was found to be 56%; in the series on strain TA100 (20 µg/ml) it was 37%. In addition, the “Mutagenic potency, Revertants/µg ± S.E., TA98” value in the series on Salmonella TA98 (plate-incorporation, +S9) was 143 rev/µg and 143 ± 19 rev/µg. In addition, the “Mutagenicity call TA98” value with Salmonella TA98 (plate-incorporation, +S9) was “(+) (Called mutagenic (+) based on showing reproducible, dose-related increases in rev/plate that reached or exceeded 2-fold relative to zero-dose controls)”. Also, in the series on Salmonella TA100 (plate-incorporation, +S9), the “Mutagenic potency, Revertants/µg ± S.E., TA100” value is given as 914 ± 113 rev/µg. The “Mutagenicity call TA100” value with Salmonella TA100 (plate-incorporation, +S9) is reported as “(+) (Called mutagenic (+) based on showing reproducible, dose-related increases in rev/plate that reached or exceeded 2-fold relative to zero-dose controls)”. Besides, in the series on Salmonella TA100 (without S9 mix), the “Mutagenicity without S9 mix (direct-acting activity)” value is reported as “required metabolic activation to be mutagenic”.

As to `O[C@H]1C=Cc2ccc3c(sc4ccccc43)c2[C@@H]1O` [[2,1]BNT-1,2-diol], in the series on Salmonella (TA100), the “Mutagenicity in Salmonella TA100” value is “not mutagenic”.
